# Assay results published in patent US8241659B2, “Nutrition with lipids and non-digestible saccharides” (N. V. Nutricia, priority 2005, dated 2012).
# What was measured:
# Bifidobacteria = test: Growth in the presence of butyrate (data not shown); format: cell-based; conditions: 10 mM butyrate
# lactic acid bacteria = test: as above; format: cell-based; conditions: 10 mM butyrate
structure (smiles),measurement,setting,value
CCCC(=O)O [butyrate],growth inhibition,Bifidobacteria,not inhibited
same,growth inhibition,lactic acid bacteria,not inhibited
